Laboratory results as given in US20250051263A1, “NOVEL IONIZABLE LIPIDS AND LIPID NANOPARTICLES AND METHODS OF USING THE SAME” (Sail Biomedicines, Inc., priority 2021, published 2025).

Key:
[1] = mRNA encapsulation efficiency, Quant-iT RiboGreen RNA Assay; assay type: physicochemical
[2] = test system: Balb/c mice; assay: In-vivo bioluminescent imaging after IV injection of Fluc mRNA LNP; conditions: for Bioluminescence (IV) Liver / Bioluminescence (IV) Lung / Bioluminescence (IV) Spleen / Bioluminescence (IV) Whole Body / Spleen: Liver Ratio: Example 5 LNP (DOPE 35:16:46.5:2.5), 5 μg FLUC + 5 μg EPO; for Bioluminescence (IV) Liver / Bioluminescence (IV) Lung / Bioluminescence (IV) Spleen / Bioluminescence (IV) Whole Body / Bioluminescence Liver / Bioluminescence Lung / Bioluminescence Spleen: 4-6 hours post-dose; for Bioluminescence (IV) Liver / Bioluminescence (IV) Lung / Bioluminescence (IV) Spleen / Bioluminescence (IV) Whole Body / Spleen: Liver Ratio / Bioluminescence Liver / Bioluminescence Lung / Bioluminescence Spleen: IV; for Spleen: Liver Ratio: ratio of bioluminescence; for Bioluminescence Liver / Bioluminescence Lung / Bioluminescence Spleen: 5 ug Fluc+5 ug EPO mRNA; for bioluminescence in the liver, spleen, and lung: used as part of an ionizable lipid scaffold (LNP), Table 1
[3] = test system: Balb/c mice; assay: EPO levels in plasma by EPO MSD kit after IV injection of EPO mRNA LNP; assay type: in vivo
[4] = mRNA encapsulation efficiency, Quant-iT RiboGreen RNA Assay; assay type: physicochemical; conditions: LNP ionizable lipid:DSPC:Plant Chol.:DMPE-PEG2k 50:10:38.5:1.5
[5] = Example 5 LNP lipid:DOPE:Plant Cholesterol:DMPE-PEG2k 35:16:46.5:2.5, FLUC/EPO 1:1 mRNA, N:P 6:1
[6] = LNP ionizable lipid:DOPE:Plant Chol.:DMPE-PEG2k 35:16:46.5:2.5 (Table 1)
[7] = LNP lipid:DOPE:Plant Chol.:DMPE-PEG2k 35:16:46.5:2.5 (Table 1)
[8] = LNP lipid:DSPC:Plant Chol.:DMPE-PEG2k 50:10:38.5:1.5
[9] = Example 5 LNP (DOPE 35:16:46.5:2.5), 5 μg FLUC + 5 μg EPO
[10] = LNP lipid:DOPE:Plant Chol.:DMPE-PEG2k 35:16:46.5:2.5 (Table 1), 5 ug Fluc+5 ug EPO mRNA
[11] = LNP lipid:DSPC:Plant Chol.:DMPE-PEG2k 50:10:38.5:1.5, 5 ug Fluc+5 ug EPO mRNA

CCCCCCCCCCCOC(=O)CCCCCN(CCCCCCCC(=O)OC(CCCCCCCC)CCCCCCCC)CCNC(=O)/C=C/C(=O)NCCN(CCCCCCCC(=O)OC(CCCCCCCC)CCCCCCCC)CCCCCC(=O)OCCCCCCCCCCC [Compound 2252, 1-octylnonyl 8-[2-[[(E)-4-[2-[[8-(1-octylnonoxy)-8-oxo-octyl]-(6-oxo-6-undecoxy-hexyl)amino]ethylamino]-4-oxo-but-2enoyl]amino]ethyl-(6-oxo-6-undecoxy-hexyl)amino]octanoate]
% EE [1, 5]: 94.5%
% EE [1, 6]: 94.5%
Bioluminescence (IV) Liver [2]: 1.5E+07
Bioluminescence (IV) Lung [2]: 3.3E+03
Bioluminescence (IV) Spleen [2]: 2.3E+05
Bioluminescence (IV) Whole Body [2]: 7.2E+07
Spleen: Liver Ratio [2]: 0.015
Bioluminescence Liver [2, 7]: 1.52E+07
Bioluminescence Lung [2, 7]: 3.27E+03
Bioluminescence Spleen [2, 7]: 2.32E+05
Bioluminescence Liver [2, 8]: 2.41E+05
Bioluminescence Lung [2, 8]: 1.03E+04
Bioluminescence Spleen [2, 8]: 4.69E+05
bioluminescence in the liver, spleen, and lung [2]: improved bioluminescence
hEPO [3, 9]: 5.6E+05
hEPO [3, 10]: 5.62E+05
hEPO [3, 11]: 2.03E+04
% EE [4]: 70.4%

C=C(CN(CCCCCCCC(=O)OC(CCCCCCCC)CCCCCCCC)CCCCCC(=O)OCCCCCCCCCCC)CN(CCCCCCCC(=O)OC(CCCCCCCC)CCCCCCCC)CCCCCC(=O)OCCCCCCCCCCC [Compound 2253, 1-octylnonyl 8-[2-[[[8-(1-octylnonoxy)-8-oxo-octyl]-(6-oxo-6-undecoxy-hexyl)amino]methyl]allyl-(6-oxo-6-undecoxy-hexyl)amino]octanoate]
% EE [1, 5]: 82.7%
% EE [1, 6]: 82.7%
Bioluminescence (IV) Liver [2]: 1.3E+03
Bioluminescence (IV) Lung [2]: 7.2E+02
Bioluminescence (IV) Spleen [2]: 1.2E+03
Bioluminescence (IV) Whole Body [2]: 3.8E+03
Spleen: Liver Ratio [2]: 0.937
Bioluminescence Liver [2, 7]: 1.33E+03
Bioluminescence Lung [2, 7]: 7.18E+02
Bioluminescence Spleen [2, 7]: 1.24E+03
Bioluminescence Liver [2, 8]: 1.30E+03
Bioluminescence Lung [2, 8]: 6.16E+02
Bioluminescence Spleen [2, 8]: 9.98E+02
bioluminescence in the liver, spleen, and lung [2]: improved bioluminescence
hEPO [3, 9]: 8.9E+01
hEPO [3, 10]: 8.89E+01
hEPO [3, 11]: 8.89E+01
% EE [4]: 27.3%
